The subject of data set [1] is artificial skin model KeraSkin. Kind of data set: Skin irritation test using artificial skin model KeraSkin (MTT). The note with it: negative control (DPBS) = 100%, nano-carbon structure at 0.1 wt % (1 mg/mL). The protocol:
The inventors of the present invention evaluated the skin irritation of nano-carbon structures using the artificial skin model KeraSkin.
Specifically, the inventors of the present invention attempted to predict the possibility of skin irritation by measuring the damage to skin cells that appear while penetrating the stratum corneum of KeraSkin after sample treatment. This experiment used MTT, which is a reagent for measuring the cell viability of test materials, and was performed in compliance with the Cosmetic Risk Assessment Guidelines (Ministry of Food and Drug Safety, 2013) and Cosmetic Toxicity Test Animal Alternative Test Method Guideline V: Skin Irritation Test Method Using a Human Skin Model (Ministry of Food and Drug Safety, 2014).

The subject of data set [2] is artificial skin model KeraSkin. Put plainly: Skin corrosion test using artificial skin model KeraSkin (MTT). The format is cell-based, human. As to conditions: negative control (deionized water) = 100%, nano-carbon structure at 0.1 wt % (1 mg/mL). The text has this:
The inventors of the present invention evaluated the skin corrosion properties of nano-carbon structures by using the artificial skin model […] is an artificial skin model that reproduces the skin's epithelium using human-derived skin keratinocytes and is manufactured to be similar to real skin in terms of morphology, microstructure and biomarker expression.

Data set [3] deals with artificial skin model KeraSkin. Kind of data set: Skin barrier function improvement in SDS-damaged KeraSkin (TEER, TEWL, H&E, immunohistochemistry). The format is cell-based, human. The note with it: KeraSkin damaged with 2% SDS, 10 μM retinoic acid or 0.01 wt % NGO.
Procedure: After treating the surface of KeraSkin with SDS (sodium dodecyl sulfate), which is an anionic surfactant, to weaken the skin's natural barrier function, a positive control material (10 μM retinoic acid) and a test material (0.01 wt % NGO) were added to the surface for 48 days. In order to evaluate the degree of improvement in the skin barrier function weakened by SDS by 48-hour application treatment, electrical resistance in epithelial tissue was measured by using the Millipore ERS-2 (Millipore, USA) system, and transepidermal water loss was measured by using the GPSKIN BARRIER PRO-II system, and histopathology was performed on four types of skin barrier markers through immunochemical staining.
The epithelial cell layer has developed tight junctions, which are one of the forms of bonding between cells. These tight junctions form physical and chemical barriers, and the strength and integrity of these barriers can be assessed through the degree of electrical resistance across cell layers, which are called “transepithelial electrical resistance (TEER).” As the barrier function is excellent, the transepithelial electrical resistance value increases.
Transdermal moisture is an essential element for the skin to perform its barrier function normally, and when “transepidermal water loss (TEWL)” increases, the enzyme function required for normal exfoliation is damaged, and it is not possible to normally perform the skin barrier functions. Therefore, transepidermal water loss is used as an important physiological indicator during the damage and recovery process of the skin barrier.

One may read the cell viability as the share of living cells, or the viability signal relative to a control. A higher cell viability goes with less harm to the cells.

In the case of `CCCCCCCCCCCCOS(=O)(=O)[O-].[Na+]` [5% SDS, sodium dodecyl sulfate], the cell viability in data set [1] is reported as 1.6%.
On to `[K+].[OH-]` [8N KOH, Potassium hydroxide], for which the cell viability in data set [2] (applied for 3 minutes) worked out at 1.6%; in data set [2] (applied for 1 hour), 0.6%.
In the case of `CC1=C(/C=C/C(C)=C/C=C/C(C)=C/C(=O)O)C(C)(C)CCC1` [retinoic acid], in data set [3], the “increase of transepithelial electrical resistance compared to the barrier damaged group” value was 16.1% and the “reduction of transepidermal water loss compared to the barrier damaged group” value was determined as 10.8%. In addition, in data set [3] (48-hour application, normal 1726.8±85.3, damaged 69.2±2.1), the “transepithelial electrical resistance (TEER)” value is listed as 347.0±15.7 Ω·cm^2. In addition, the “transepidermal water loss (TEWL) rate compared to the negative control group” value in data set [3] (damaged group 133.7±3.2%) was determined as 122.9±6.5%.

These data come from US20250186313A1, “SCALP OR HAIR CARE COMPOSITION COMPRISING NANO-CARBON STRUCTURE” (INBCT Co., Ltd., priority 2022, published 2025).
